The values that follow come from PMC9865363, “Identification of Human UDP-Glucuronosyltransferase Involved in Gypensapogenin C Glucuronidation and Species Differences” (International Journal of Molecular Sciences, 2023).

The subject of series [1] is GPC glucuronidation in human liver microsomes. Put plainly: Chemical inhibition of GPC glucuronidation in human liver microsomes. The conditions noted are these: GPC 15 μM, HLMs 0.2 mg/mL, 30 min. Here is the method:
(§1) The glucuronidation incubation system consisted of Tris-HCl buffer (50 mM, pH = 7.4), magnesium chloride (4 mM), alamethicin (12.5 μg/mL), human liver microsomes (0.5 mg/mL), UDPGA (100 mM), and GPC (20 μM). […] The incubation system was first preincubated at 37 °C for 3 min before adding UDPGA to initiate the reaction. The reaction was terminated […] with the addition of an equal volume of iced acetonitrile (containing 30 μM PPT). After vortexing for 3 min, the supernatant obtained was centrifuged at 14,300 rpm for 15 min at 4 °C and used for LC–MS/MS analysis.
(§2) Glucuronidation metabolism of GPC in HLMs was inhibited using hecogenin, phenylbutazone, fluconazole, and magnolol. The concentrations of the four inhibitors were set to 1, 10, 50, and 200 μM, and the concentration of GPC was set to 15 μM. The incubation time and protein concentration were […], respectively. All the rest of the incubation conditions were as in Section 4.3. The incubation without inhibitor but with the same volume of DMSO was set to be the solvent control.

The test system of series [2] is glucuronidation (GPCG formation). Put plainly: GPC glucuronidation in rat liver microsomes (enzyme kinetics, species comparison). The conditions noted are these: Sprague-Dawley, rat, rat liver microsomes, pH 7.4.
Test in series [3]: as above
The conditions noted are these: Sprague-Dawley, rat, rat liver microsomes, pH 7.4.

Series [4] has as its system rat liver microsomes (RLM). The description is as above. The conditions noted are these: 30 min.
For series [5], the system named is recombinant human UGT1A1, 1A3, 1A6, 1A7, 1A8, 1A9, 1A10, 2B7, and 2B17. Put plainly: Recombinant human UGT enzyme assay of GPC glucuronidation, remaining isoenzymes. The class given is in vitro ADME. The conditions noted are these: remaining recombinant UGT isoenzymes 0.1 mg/mL, GPC 1 and 10 μM. On the procedure: (§3) The glucuronidation incubation system consisted of Tris-HCl buffer (50 mM, pH = 7.4), magnesium chloride (4 mM), alamethicin (12.5 μg/mL), human liver microsomes (0.5 mg/mL), UDPGA (100 mM), and GPC (20 μM).
(§4) The glucuronidation metabolic activity of GPC at two concentration levels (1 and 10 μM) was determined using an incubation system with 10 recombinant human UGT enzymes (UGT1A1, 1A3, 1A4, 1A6, 1A7, 1A8, 1A9, 1A10, 2B7, 2B17) (0.1 mg/mL). The incubation conditions were the same as in Section 4.3, except for the protein concentration of 0.1 mg/mL. Lastly, metabolites were detected using LC–MS/MS.

The test system of series [6] is glucuronidation (GPCG formation). The series is described as follows: GPC glucuronidation in pig liver microsomes (enzyme kinetics, species comparison). The conditions noted are these: pig, pig liver microsomes, pH 7.4.
Test in series [7]: as above
The conditions noted are these: minipig, pig, pig liver microsomes, pH 7.4.

Series [8] concerns pig liver microsomes (PLM). The description is as above. The conditions noted are these: 30 min.
The subject of series [9] is glucuronidation (GPCG formation). Put plainly: GPC glucuronidation in mouse liver microsomes (enzyme kinetics, species comparison). The conditions noted are these: ICR/CD-1, mouse, mouse liver microsomes, pH 7.4.
Test in series [10]: as above
The conditions noted are these: ICR/CD-1, mouse, mouse liver microsomes, pH 7.4.

In series [11] the test system is mouse liver microsomes (MLM). The series is described as above. The conditions noted are these: MLMs 0.2 mg/mL, GPC 2–200 μM, 30 min, substrate inhibition fit.
In series [12] the test system is glucuronidation (GPCG formation). The series is described as follows: GPC glucuronidation in bovine liver microsomes (enzyme kinetics, species comparison). The conditions noted are these: bovine, bovine liver microsomes, pH 7.4.
Test in series [13]: as above
The conditions noted are these: bovine, bovine liver microsomes, pH 7.4.

For series [14], the system named is bovine liver microsomes (BLM). Described as above. The conditions noted are these: 30 min.
The test system of series [15] is glucuronidation (GPCG formation). The series is described as follows: GPC glucuronidation in dog liver microsomes (enzyme kinetics, species comparison). The conditions noted are these: Beagle, dog, dog liver microsomes, pH 7.4.
Test in series [16]: as above
The conditions noted are these: Beagle, dog, dog liver microsomes, pH 7.4.

In series [17] the test system is dog liver microsomes (DLM). The description is as above. The conditions noted are these: 30 min.
Series [18] deals with glucuronidation (GPCG formation). Put plainly: GPC glucuronidation in rabbit liver microsomes (enzyme kinetics, species comparison). The conditions noted are these: New Zealand, rabbit, rabbit liver microsomes, pH 7.4.
Test in series [19]: as above
The conditions noted are these: New Zealand, rabbit, rabbit liver microsomes, pH 7.4.

Series [20] deals with rabbit liver microsomes (RaLM). Described as above. The conditions noted are these: RaLMs 0.2 mg/mL, GPC 2–200 μM, 30 min, substrate inhibition fit.
Series [21] concerns human liver microsomes (HLMs). Put plainly: GPC glucuronidation in human liver microsomes (enzyme kinetics, species comparison). The conditions noted are these: 30 min.
Series [22] has as its system glucuronidation (GPCG formation). The series is described as above. The conditions noted are these: human, human liver microsomes, pH 7.4.
Test in series [23]: as above
The conditions noted are these: human, human liver microsomes, pH 7.4.

For a further series, the target named is T1, recombinant human UGT1A4 (Homo sapiens, UniProt P22310).
T1 construct: purchased Cypex (Scotland, UK)
T1 sequence (P22310 29-534): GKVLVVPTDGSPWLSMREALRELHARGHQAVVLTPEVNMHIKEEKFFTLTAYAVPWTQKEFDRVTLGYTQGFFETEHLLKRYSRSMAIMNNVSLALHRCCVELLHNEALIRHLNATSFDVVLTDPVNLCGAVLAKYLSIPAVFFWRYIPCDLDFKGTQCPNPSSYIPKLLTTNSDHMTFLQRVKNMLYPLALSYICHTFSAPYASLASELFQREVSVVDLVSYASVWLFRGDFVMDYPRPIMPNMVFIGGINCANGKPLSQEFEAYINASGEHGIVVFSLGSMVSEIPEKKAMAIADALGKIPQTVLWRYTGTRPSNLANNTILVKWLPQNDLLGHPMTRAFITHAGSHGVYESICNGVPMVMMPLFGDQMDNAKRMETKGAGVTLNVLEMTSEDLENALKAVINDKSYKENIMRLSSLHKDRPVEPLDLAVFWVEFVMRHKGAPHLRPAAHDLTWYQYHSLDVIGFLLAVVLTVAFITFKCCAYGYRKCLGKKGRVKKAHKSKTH
Put plainly: Recombinant human UGT enzyme assay of GPC glucuronidation, UGT1A4. The class given is in vitro ADME. The conditions noted are these: recombinant UGT1A4 0.1 mg/mL, GPC 1 and 10 μM. Here is the method:
as §3, §4

Series [24] concerns glucuronidation (GPCG formation). Put plainly: GPC glucuronidation in monkey liver microsomes (enzyme kinetics, species comparison). The conditions noted are these: monkey, monkey liver microsomes, pH 7.4.
Test in series [25]: as above
The conditions noted are these: monkey, monkey liver microsomes, pH 7.4.

Series [26] has as its system monkey liver microsomes (MkLM). The description is as above. The conditions noted are these: 30 min.
Another series deals with GPC glucuronidation. Put plainly: Chemical inhibition of GPC glucuronidation in human liver microsomes. The conditions noted are these: human, pH 7.4. Here is the method:
as §1, §2

[27] abbreviates: inhibitor 1, 10, 50, and 200 μM.

On to `OC(Cn1cncn1)(Cn1cncn1)c1ccc(F)cc1F` [fluconazole], for which the “inhibition of GPC glucuronidation (in words)” value (“inhibition … (in words)” for short) in series [1] (setting [27]) is listed as “Neither fluconazole nor phenylbutazone inhibited”.
As to `CC(C)=C1CC=C([C@H]2CC[C@]3(C)[C@@H]2CC[C@@H]2[C@@]4(C)CC[C@H](O)C(C)(C)[C@@H]4CC[C@]23C)C1=O` [GPC, Gypensapogenin C], the Michaelis-Menten constant (Km) at 30 min in [2] was 94.1 ± 89.8 µM; in [6], 9.58 ± 2.32 µM; in [9], 10 ± 2.1 µM; in [12], 12.2 ± 5.16 µM; in series [15], 9.56 ± 2.83 µM; in [18], 16.2 ± 3.77 µM. The Km at 30 min in [22] turned out to be 15.4 ± 5.26 µM; in series [24], 107 ± 73.2 µM. Moreover, the microsomal CLint in series [3] is 40 µL/min/mg; in series [7], 147 µL/min/mg; in [10] it was 690 µL/min/mg; in series [13], 259 µL/min/mg; in series [16], 2120 µL/min/mg; in [19] it was 304 µL/min/mg. The intrinsic clearance (microsomal CLint) in series [23] worked out at 27 µL/min/mg; in [25], 77 µL/min/mg. The Vmax came out at 3.80 ± 3.01 nmol/min/mg in series [4] (RLMs 0.2 mg/mL, GPC 2–200 μM, substrate inhibition fit); 1.41 ± 0.18 nmol/min/mg in [8] (PLMs 0.2 mg/mL, GPC 2–200 μM, substrate inhibition fit); 6.93 ± 0.69 nmol/min/mg in [11]; 3.17 ± 0.89 nmol/min/mg in series [14] (BLMs 0.2 mg/mL, GPC 2–200 μM, substrate inhibition fit); 20.28 ± 2.57 nmol/min/mg in series [17] (DLMs 0.2 mg/mL, GPC 2–200 μM, substrate inhibition fit); 4.92 ± 0.57 nmol/min/mg in series [20]. For the same compound, the Vmax came out at 0.42 ± 0.09 nmol/min/mg in series [21] (HLMs 0.2 mg/mL, GPC 2–200 μM, substrate inhibition fit) and 8.29 ± 4.69 nmol/min/mg in series [26] (MkLMs 0.2 mg/mL, GPC 2–200 μM, substrate inhibition fit). In addition, the “GPC glucuronidation product generation (semiquantitative, peak area ratio)” value in [4] (rat liver microsomes 0.2 mg/mL, GPC 10 and 50 μM) is “Trace amounts”; in series [8] (pig liver microsomes 0.2 mg/mL, GPC 10 and 50 μM), “Trace amounts”; in series [14] (bovine liver microsomes 0.2 mg/mL, GPC 10 and 50 μM), “Trace amounts”; in series [17] (dog liver microsomes 0.2 mg/mL, GPC 10 and 50 μM), “highest amounts”; in [21] (human liver microsomes 0.2 mg/mL, GPC 10 and 50 μM) it was “Trace amounts”; in [26] (monkey liver microsomes 0.2 mg/mL, GPC 10 and 50 μM), “Trace amounts”. Also, the “catalytic activity for GPC glucuronidation” value is listed as “none of the remaining UGT isoenzymes showed activity” in series [5] and “highest catalytic activity” on recombinant human UGT1A4.
Take `C=CCc1ccc(O)c(-c2cc(CC=C)ccc2O)c1` [Magnolol, magnolol]: in the series on GPC glucuronidation, the inhibition at 30 min, 200 μM is 50%. Besides, the “inhibition … (in words)” value in series [1] (inhibitor 1–50 μM) is listed as “insignificant inhibition”.
In the case of `CCCCC1C(=O)N(c2ccccc2)N(c2ccccc2)C1=O` [phenylbutazone], in series [1] (setting [27]), the “inhibition … (in words)” value is recorded as “Neither fluconazole nor phenylbutazone inhibited”.
For the compound hecogenin, the “inhibition of GPC glucuronidation” value was “more than 40%” in [1] (inhibitor 1 μM) and 70% in series [1] (inhibitor 10 μM).
